Results reported in patent publication US8871728B2, “Non-peptide macrocyclic histone deacetylese (HDAC) inhibitors and methods of making and using thereof” (Georgia Tech Research Corporation, priority 2007, dated 2014).
Values joined by “and” are separate entries in the source; they are usually repeats but may differ in a detail not shown here. Equal entries are not always repeated. Where two headings read alike, the source gives them in different places.

How the values were obtained:
HDAC8 [1] = biological target: T1, HDAC8 (Homo sapiens (Human), UniProt Q9BY41); assay: Fluor de Lys HDAC8 inhibition; format: biochemical; details: average of three independent experiments; Table 4; read-out: HDAC 8
T1 sequence (Q9BY41 whole entry): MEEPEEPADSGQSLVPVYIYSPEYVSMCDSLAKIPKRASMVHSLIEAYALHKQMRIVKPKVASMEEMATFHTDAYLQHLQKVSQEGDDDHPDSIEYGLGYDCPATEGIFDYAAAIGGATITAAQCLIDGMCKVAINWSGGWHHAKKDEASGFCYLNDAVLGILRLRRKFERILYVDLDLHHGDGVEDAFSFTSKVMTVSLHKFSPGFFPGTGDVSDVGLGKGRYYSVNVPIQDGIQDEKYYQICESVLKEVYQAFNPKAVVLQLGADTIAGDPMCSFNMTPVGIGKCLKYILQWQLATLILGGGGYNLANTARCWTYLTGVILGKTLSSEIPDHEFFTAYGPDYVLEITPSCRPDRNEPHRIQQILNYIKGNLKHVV

[2] = system: HeLa nuclear extract HDAC1/2; assay: Fluor de Lys HDAC inhibition, HeLa nuclear extract; format: biochemical, human; details: HeLa nuclear extract; average of three independent experiments; Table 4; read-out: HDAC ½
From the text: Fluor de Lys™ is a fluorescence based HDAC activity assay comprising a combination of fluorogenic Histone deAcetylase Lysyl substrate and a developer. The kit is a highly sensitive and convenient alternative to radiolabeled, acetylated histones or peptide/HPLC methods for the assay of histone deacetylases. This assay is based on the ability of HeLa nuclear extract, which is enriched in HDAC activity, to mediate the deacetylation of the acetylated lysine side chain of the Fluor de Lys substrate. The assay procedure requires two steps. First, incubation of the HeLa nuclear extract with the Fluor de Lys substrate results in substrate deacetylation and thus sensitizes it to the second step. In the second step, treatment of the deacetylated substrate with the Fluor de Lys developer produces a fluorophore. The substrate-developer reaction, under normal circumstances goes to completion in less than 1 min at 25° C. The kit used was the Fluorimetric Assay/Drug Discovery Kit—AK-500 Manual Fluorescent Assay System available from BIOMOL® International, Plymouth Meeting, Pa.
Each IC50 value was obtained by averaging three independent experiments.

DU 145 cells = assay: Cell viability, trypan blue exclusion; format: cell-based; details: Homo sapiens
From the text: (§1) Most importantly, the compounds we less toxic to untransformed cell-lines (lung fibroblast and HMEC).
(§2) Most importantly, these compounds are less toxic to untransformed cell-lines (lung fibroblast and HMEC) that we have studied to date.

lung fibroblasts = assay: Cell viability, trypan blue exclusion; format: cell-based; details: Fibroblast; untransformed cells
From the text: as §1, §2

HMEC = assay: Cell viability, trypan blue exclusion; format: cell-based; details: Homo sapiens; untransformed cells
From the text: as §1, §2

SKMES 1 = assay: Cell viability, trypan blue exclusion; format: cell-based; details: Homo sapiens, SK-MES-1
From the text: as §1, §2

NCI-H69 = assay: Cell viability, trypan blue exclusion; format: cell-based; details: Homo sapiens
From the text: as §1, §2

HDAC6 = HDAC6 (Homo sapiens (Human), UniProt Q9UBN7); assay: SAMDI mass spectrometry HDAC inhibition assay; format: biochemical
HDAC6, sequence (Q9UBN7 whole entry): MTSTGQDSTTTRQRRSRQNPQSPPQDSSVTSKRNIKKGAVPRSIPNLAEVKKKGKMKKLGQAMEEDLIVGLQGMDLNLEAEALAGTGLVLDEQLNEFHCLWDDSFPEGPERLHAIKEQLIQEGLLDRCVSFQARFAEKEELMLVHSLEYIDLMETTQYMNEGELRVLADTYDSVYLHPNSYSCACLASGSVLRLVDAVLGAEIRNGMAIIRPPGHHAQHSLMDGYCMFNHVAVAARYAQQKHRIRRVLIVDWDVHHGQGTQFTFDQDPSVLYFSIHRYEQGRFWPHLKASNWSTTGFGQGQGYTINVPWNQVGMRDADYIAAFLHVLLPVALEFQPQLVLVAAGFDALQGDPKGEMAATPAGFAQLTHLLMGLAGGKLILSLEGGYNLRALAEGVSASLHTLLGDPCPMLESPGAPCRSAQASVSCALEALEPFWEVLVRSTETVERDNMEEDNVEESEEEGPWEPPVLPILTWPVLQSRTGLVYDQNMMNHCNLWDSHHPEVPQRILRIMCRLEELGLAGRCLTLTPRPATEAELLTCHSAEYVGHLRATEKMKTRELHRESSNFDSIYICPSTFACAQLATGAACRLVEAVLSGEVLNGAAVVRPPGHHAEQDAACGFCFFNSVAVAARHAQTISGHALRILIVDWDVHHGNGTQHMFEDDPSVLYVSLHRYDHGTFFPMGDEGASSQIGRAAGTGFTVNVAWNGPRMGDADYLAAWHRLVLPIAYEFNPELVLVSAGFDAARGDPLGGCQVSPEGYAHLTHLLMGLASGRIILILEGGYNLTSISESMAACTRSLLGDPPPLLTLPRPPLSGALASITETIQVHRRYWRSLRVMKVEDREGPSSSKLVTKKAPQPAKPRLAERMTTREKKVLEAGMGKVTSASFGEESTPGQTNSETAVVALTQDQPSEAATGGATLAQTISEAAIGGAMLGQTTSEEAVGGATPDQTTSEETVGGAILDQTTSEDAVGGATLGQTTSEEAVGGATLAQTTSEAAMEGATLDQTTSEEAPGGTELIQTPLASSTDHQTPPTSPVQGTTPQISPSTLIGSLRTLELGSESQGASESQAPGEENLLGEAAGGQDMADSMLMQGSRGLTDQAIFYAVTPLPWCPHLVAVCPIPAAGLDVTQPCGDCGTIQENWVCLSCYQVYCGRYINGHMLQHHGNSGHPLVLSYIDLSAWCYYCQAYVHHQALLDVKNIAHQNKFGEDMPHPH
Experimental: (§3) There is precedence that fluorescently labeled substrates can perturb enzyme activity and the effect of inhibitors. […] Additionally, 3-hydroxypyridine-2-ones are highly colored solids and might lead to false positive signals. Mindful of these facts, a label-free SAMDI (self-assembled monolayers for MALDI) mass spectrometry assay was also used to assess HDAC inhibition.
The SAMDI technique, wherein self-assembled monolayers (SAM) of alkanethiolates on gold are analyzed by matrix assisted laser desorption/ionization (MALDI) mass spectrometry, has been widely used to characterize many biochemical activities, including the deacetylase enzyme family. The SAMDI assay was used to measure the inhibition constant (K1) of fragments against HDAC1, HDAC6 and HDAC8 using a previously identified preferred HDAC substrate.

[3] = system: LNCaP (androgen dependent prostate cancer); assay: Anti-cancer activity screen; format: cell-based
HDAC8 [4] = biological target: T1, HDAC8; assay: SAMDI mass spectrometry HDAC inhibition assay; format: biochemical
Experimental: as §3
(§4) The SAMDI technique, wherein self-assembled monolayers (SAM) of alkanethiolates on gold are analyzed by matrix assisted laser desorption/ionization (MALDI) mass spectrometry, has been widely used to characterize many biochemical activities, including the deacetylase enzyme family.

[5] = system: Jurkat (T cell leukemia overexpressing HDAC8); assay: Anti-cancer activity screen; format: cell-based; details: read-out: Jurkat (μm)
HDAC1 = HDAC1 (Homo sapiens (Human), UniProt Q13547); assay: SAMDI mass spectrometry HDAC inhibition assay; format: biochemical; details: for HDAC1 inhibition, symbol: SAMDI
HDAC1, sequence (Q13547 whole entry): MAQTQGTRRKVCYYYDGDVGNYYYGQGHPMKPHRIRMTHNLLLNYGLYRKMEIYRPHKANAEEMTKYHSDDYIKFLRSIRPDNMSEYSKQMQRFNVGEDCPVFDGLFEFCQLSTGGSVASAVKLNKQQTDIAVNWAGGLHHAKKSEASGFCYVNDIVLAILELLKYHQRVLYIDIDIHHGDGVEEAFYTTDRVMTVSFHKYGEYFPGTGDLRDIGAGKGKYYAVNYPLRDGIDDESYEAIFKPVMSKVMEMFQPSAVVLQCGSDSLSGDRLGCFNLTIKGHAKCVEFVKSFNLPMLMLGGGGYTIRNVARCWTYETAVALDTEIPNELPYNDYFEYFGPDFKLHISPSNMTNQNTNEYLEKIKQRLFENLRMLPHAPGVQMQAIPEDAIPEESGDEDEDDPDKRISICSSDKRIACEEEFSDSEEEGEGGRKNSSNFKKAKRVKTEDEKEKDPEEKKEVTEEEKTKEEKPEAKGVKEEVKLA
Experimental: as §3, §4

[6] = system: DU 145 (androgen independent prostate cancer); assay: Anti-cancer activity screen; format: cell-based
[7] = Table 14, read-out: HDAC 6 (nm)
[8] = Table 14, read-out: HDAC 8 (nm)
[9] = Homo sapiens, DU-145, calculated IC50 above 20 μM (highest concentration tested) also reported as >20
[10] = calculated IC50 above 20 μM (highest concentration tested) also reported as >20

SMILES: CC[C@H]1OC(=O)[C@H](C)[C@@H](O[C@H]2C[C@@](C)(OC)[C@@H](O)[C@H](C)O2)[C@H](C)[C@@H](O[C@@H]2O[C@H](C)C[C@H](N(C)Cc3ccc(-c4cn(CCCCCC(=O)NO)nn4)cc3)[C@H]2O)[C@](C)(OC)C[C@@H](C)C(=O)[C@H](C)[C@@H](O)[C@]1(C)O [Compound 23, Clarithromycin-N-phenyltriazolylhexahydroxamic acid]
- IC50 (HDAC8 [1]): 3990 nM
- IC50 [2]: 37 nM
- EC50 (DU 145 cells): 2980 nM
- EC50 (lung fibroblasts): > 10000 nM
- EC50 (HMEC): > 10000 nM
- EC50 (SKMES 1): 2150 nM
- EC50 (NCI-H69): 2670 nM

SMILES: CC[C@H]1OC(=O)[C@H](C)[C@@H](O)[C@H](C)[C@@H](O[C@@H]2O[C@H](C)C[C@H](N(C)Cc3ccc(-c4cn(CCCCCCC(=O)NO)nn4)cc3)[C@H]2O)[C@](C)(OC)C[C@@H](C)C(=O)[C@H](C)[C@@H](O)[C@]1(C)O [Compound 26, Descladinose-Clarithromycin-N-phenyltriazolylheptahydroxamic acid]
- IC50 (HDAC8 [1]): 1390 nM
- IC50 [2]: 1.87 nM
- EC50 (DU 145 cells): 1050 nM
- EC50 (lung fibroblasts): > 10000 nM
- EC50 (HMEC): > 10000 nM
- EC50 (SKMES 1): 1280 nM
- EC50 (NCI-H69): 1490 nM

SMILES: CC[C@H]1OC(=O)[C@H](C)[C@@H](O)[C@H](C)[C@@H](O[C@@H]2O[C@H](C)C[C@H](N(C)Cc3ccc(-c4cn(CCCCCC(=O)NO)nn4)cc3)[C@H]2O)[C@](C)(OC)C[C@@H](C)C(=O)[C@H](C)[C@@H](O)[C@]1(C)O [Compound 24, Descladinose-Clarithromycin-N-phenyltriazolylhexahydroxamic acid]
- IC50 (HDAC8 [1]): 4750 nM
- IC50 [2]: 44.3 nM
- EC50 (DU 145 cells): 3290 nM
- EC50 (lung fibroblasts): > 10000 nM
- EC50 (HMEC): > 10000 nM
- EC50 (SKMES 1): 1950 nM
- EC50 (NCI-H69): 1920 nM

SMILES: N#Cc1cccc(-c2cn(CCCCCn3cccc(O)c3=S)nn2)c1 [Compound 167e, 1-(3-Benzonitrile)triazolylpentyl-3-hydroxypyridine-2-thione]
- IC50 (HDAC6; SAMDI, read-out: HDAC6 IC50): 356 nM
- IC50 (HDAC6; [7]): 637 nM and 356 nM
- IC50 [3]: 3490 ± 340 nM
- IC50 ([3]; Homo sapiens, LNCaP): 4950 ± 430 nM
- IC50 (HDAC8 [4]; SAMDI, read-out: HDAC8 IC50): 2830 nM
- IC50 (HDAC8 [4]; [8]): 2400 ± 263 nM
- IC50 ([5]; Homo sapiens, Jurkat): 5180 ± 1180 nM
- IC50 [5]: 3440 ± 570 nM

SMILES: Oc1cccn(CCCCCCCn2cc(-c3ccccc3)nn2)c1=S [Compound 162f, 1-Phenyltriazolylheptyl-3-hydroxypyridine-2-thione]
- IC50 (HDAC6; SAMDI, read-out: HDAC6 IC50): 955 ± 150 nM
- IC50 (HDAC6; [7]): 955 ± 150 nM
- IC50 [3]: 11000 ± 1920 nM
- IC50 (HDAC8 [4]; SAMDI, read-out: HDAC8 IC50): 232 ± 19 nM
- IC50 (HDAC8 [4]; [8]): 1380 ± 205 nM
- HDAC1 inhibition, symbol (HDAC1): NI (No significant Inhibition (below 20% Inhibition))
- HDAC1 % inhibition (HDAC1; at 10 μM, given if the IC50 was above 10 μM): 35%
- IC50 [5]: 9040 ± 1310 nM
- IC50 [6]: 17700 ± 3280 nM

SMILES: CN(C)c1ccc(-c2ccc(Cn3cccc(O)c3=S)cc2)cc1 [Compound 149g, 1-(4-Dimethylamino-(1,1′-biphenylmethyl))-3-hydroxyoxypyridine-2-thione]
- HDAC6 inhibition, symbol (HDAC6; SAMDI): NI (No significant Inhibition (below 20% Inhibition))
- IC50 ([3]; Homo sapiens, LNCaP): 16200 ± 1110 nM
- IC50 (HDAC8 [4]; [8]): 2860 ± 944 nM
- HDAC1 inhibition, symbol (HDAC1): NI (No significant Inhibition (below 20% Inhibition))
- IC50 ([5]; Homo sapiens, Jurkat): 10600 ± 970 nM
- IC50 [6, 9]: > 20000 nM
- IC50 [6, 10]: 22800 ± 3800 nM

SMILES: N#Cc1ccccc1-c1ccc(Cn2cccc(O)c2=S)cc1 [Compound 149c, 1-(2-Cyano-(1,1′-biphenylmethyl))-3-hydroxyoxypyridine-2-thione]
- IC50 (HDAC6; SAMDI, read-out: HDAC6 IC50): 372 ± 35 nM
- IC50 ([3]; Homo sapiens, LNCaP): 14600 ± 840 nM
- IC50 (HDAC8 [4]; SAMDI, read-out: HDAC8 IC50): 1910 ± 771 nM
- IC50 (HDAC8 [4]; SAMDI, read-out: HDAC8 activity (IC50)): ~2000 nM
- IC50 (HDAC8 [4]; [8]): 1910 ± 771 nM
- HDAC1 inhibition, symbol (HDAC1): NI (No significant Inhibition (below 20% Inhibition))
- IC50 ([5]; Homo sapiens, Jurkat): 8950 ± 690 nM
- IC50 [6, 9]: 30000 ± 5850 nM
- IC50 [6, 10]: > 20000 nM
